Patent publication US20150336889A1, “INDOLE DERIVATIVES, PHARMACEUTICAL COMPOSITIONS CONTAINING SUCH INDOLES AND THEIR USE AS DNA METHYLATION MODULATORS” (IKERCHEM, S.L., priority 2012, published 2015)

Assays:
NCI-H1975 = test: Cancer cell growth inhibition, NCI-H1975; assay type: cell-based; conditions: Homo sapiens; Lung, NCI-H1975, cell viability, 72 h
Experimental: (§1) Cell culture-based assays were used to evaluate the ability of compounds of the invention to inhibit cancer cell growth inhibition.
(§2) Cells were obtained from the American Type Culture Collection (ATCC) and European Collection of Cell Cultures (ECACC).
(§3) Cells were thawed in their appropriate media plus supplements (see table below). Cells were passaged at confluence by washing once in HBSS cation-free followed by a 3 minutes incubation with trypsin ([0.5 μg/ml]/EDTA [0.2 μg/ml]) (Gibco-BRL, 15400054) solution in HBSS at 37° C. (except non-adherent cell lines), and transferred to their appropriate media plus supplements. Prior to seeding at defined cell concentration, cells were recovered in medium, centrifuged and taken up in medium, and counted.
(§4) Cells were plated at 3000/5000/10000 cells/well in 100 μl media in tissue culture 96 well plates (Cultek). After 24 h, media was supplemented by 100 μl/well of diluted IPDNs at 100 μM.
(§5) The Hexosaminidase assay was used for the adherent cell lines, whereas the AlamarBlue® assay was used for the non-adherent cell lines.
(§6) Dose-response curves were generated by serial dilutions (1:1) of the compounds. […] Reagent blanks, containing media plus colorimetric reagent without cells were run on each plate. Blank values were subtracted from test values and were routinely 5-10% of uninhibited control values. Plates were incubated 72 h, and living cell number was determined by AlamarBlue® and Hexosaminidase test. The advantages of using those assays are that both can be done in the same microwell plate. AlamarBlue® assay: plates were incubated 72 h and living cell number was determined by AlamarBlue (Biosource DAL1100). After 4 h incubation at 37° C., relative fluorescent intensity, which correlates with the number of living cells, was read in a Cytofluor plate reader (Millipore) at 535/590 nm (Excitation/emission). The hexosaminidase activity was measured according to the following protocol: the media was removed and cells were washed once with PBS.
(§7) Data analysis was done by calculating the percentage of cell viability normalized in front of negative control values, which were considered as a 100%. The curve was adjusted using a sigmoidal dose-response (variable slope) equation and EC50 values were obtained from the equation
(§8) where, X is the logarithm of concentration. Y is the response. Bottom is the Y value at the bottom plateau Top is the Y value at the top plateau LogEC50 is the X value when the response is halfway between Bottom and Top. With different kinds of variables, this variable is sometimes called ED50 (effective dose, 50%), or IC50 (inhibitory concentration, 50%, used when the curve goes downhill).

SW-480 = test: Cancer cell growth inhibition, SW-480; assay type: cell-based; conditions: Homo sapiens, SW480; Colorectal, SW-480, cell viability, 72 h
Experimental: as §1, §2
as §3, with “counted. […]” for “counted.”
(§9) Dose-response curves were generated by serial dilutions (1:1) of the compounds. […] Plates were incubated 72 h, and living cell number was determined by AlamarBlue® and Hexosaminidase test. […] AlamarBlue® assay: plates were incubated 72 h and living cell number was determined by AlamarBlue (Biosource DAL1100). After 4 h incubation at 37° C., relative fluorescent intensity, which correlates with the number of living cells, was read in a Cytofluor plate reader (Millipore) at 535/590 nm (Excitation/emission). The hexosaminidase activity was measured according to the following protocol: the media was removed and cells were washed once with PBS. […]

BT474 = test: Cancer cell growth inhibition, BT474; assay type: cell-based; conditions: Homo sapiens, BT-474; Breast, BT474, cell viability, 72 h
Experimental: as §1, §2
as §3, with “counted. […]” for “counted.”
as §9

Human DNMT1 = target: T1, Human DNMT1 (Homo sapiens, UniProt P26358); test: DNMT1 enzymatic activity inhibition, radioisotope-based 3H-SAM filter binding assay; assay type: biochemical; conditions: 1 μM SAM, 25 nM DNMT1, 0.005 mg/ml Poly(dI-dC), 30° C. 1 hour, 10-dose
T1 construct: a-a 2-1632, with N-terminal GST tag; GST (N)
Experimental: The inhibition of the enzymatic activity of DNMT1 was tested using low volume radioisotope-based assay which uses tritium-labeled AdoMet (^3H-SAM) as a methyl donor. Inhibitors diluted in DMSO were added by using acoustic technology (Echo550, Labcyte Inc. Sunnyvale, Calif.) into enzyme/substrate mixture in nano-liter range. The reaction was initiated by the addition of ^3H-SAM, and incubated at 30° C. for 1 hour. Total final methylations on the substrate poly(dI-dC) were detected by a filter binding approach. Data analysis was performed using GraphPad Prism software (La Jolla, Calif.) for IC50 curve fits.

NCI-H358 = test: Cancer cell growth inhibition, NCI-H358; assay type: cell-based; conditions: Homo sapiens; Lung, NCI-H358, cell viability, 72 h
Experimental: as §1, §2, §3, §4, §5, §6, §7, §8

Daoy = test: Cancer cell growth inhibition, Daoy; assay type: cell-based; conditions: Homo sapiens, Brain, cell viability, 72 h
Experimental: as §1, §2, §3, §4, §5, §6, §7, §8

Panc-1 = test: Cancer cell growth inhibition, Panc-1; assay type: cell-based; conditions: Homo sapiens; Pancreatic, Panc-1, cell viability, 72 h
Experimental: as §1, §2, §3, §4, §5, §6, §7, §8

OVCAR-3 = test: Cancer cell growth inhibition, OVCAR-3; assay type: cell-based; conditions: Homo sapiens; Ovarian, OVCAR-3, cell viability, 72 h
Experimental: as §1, §2
as §3, with “counted. […]” for “counted.”
as §9

DU-145 = test: Cancer cell growth inhibition, DU-145; assay type: cell-based; conditions: Homo sapiens; Prostate, DU-145, cell viability, 72 h
Experimental: as §1, §2, §3, §4, §5
as §6, with “PBS. […]” for “PBS.”

Colo205 = test: Cancer cell growth inhibition, Colo205; assay type: cell-based; conditions: Homo sapiens, COLO 205; Colorectal, Colo205, cell viability, 72 h
Experimental: as §1, §2, §3, §4, §5
as §6, with “PBS. […]” for “PBS.”

HepG2 = test: Cancer cell growth inhibition, HepG2; assay type: cell-based; conditions: Homo sapiens; Liver, HepG2, cell viability, 72 h
Experimental: as §1, §2
as §3, with “counted. […]” for “counted.”
as §9

T47D = test: Cancer cell growth inhibition, T47D; assay type: cell-based; conditions: Homo sapiens, Breast, cell viability, 72 h
Experimental: as §1, §2, §3, §4, §5, §6, §7, §8

MDA-MB-468 = test: Cancer cell growth inhibition, MDA-MB-468; assay type: cell-based; conditions: Homo sapiens; Breast, MDA-MB-468, cell viability, 72 h
Experimental: as §1, §2, §3, §4, §5
as §6, with “PBS. […]” for “PBS.”

U-373MG = test: Cancer cell growth inhibition, U-373MG; assay type: cell-based; conditions: Homo sapiens, U373 MG, Brain, cell viability, 72 h
Experimental: as §1, §2, §3, §4, §5
as §6, with “PBS. […]” for “PBS.”

MDA-MB-231 = test: Cancer cell growth inhibition, MDA-MB-231; assay type: cell-based; conditions: Homo sapiens; Breast, MDA-MB-231, cell viability, 72 h
Experimental: as §1, §2
as §3, with “counted. […]” for “counted.”
as §9

RCC-7860 = test: Cancer cell growth inhibition, RCC-7860; assay type: cell-based; conditions: Renal, RCC-7860, cell viability, 72 h
Experimental: as §1, §2
as §3, with “counted. […]” for “counted.”
as §9

LS174T = test: Cancer cell growth inhibition, LS174T; assay type: cell-based; conditions: Homo sapiens, Colorectal, cell viability, 72 h
Experimental: as §1, §2
as §3, with “counted. […]” for “counted.”
as §9

T1 sequence (P26358 2-1632 isoform P26358-2): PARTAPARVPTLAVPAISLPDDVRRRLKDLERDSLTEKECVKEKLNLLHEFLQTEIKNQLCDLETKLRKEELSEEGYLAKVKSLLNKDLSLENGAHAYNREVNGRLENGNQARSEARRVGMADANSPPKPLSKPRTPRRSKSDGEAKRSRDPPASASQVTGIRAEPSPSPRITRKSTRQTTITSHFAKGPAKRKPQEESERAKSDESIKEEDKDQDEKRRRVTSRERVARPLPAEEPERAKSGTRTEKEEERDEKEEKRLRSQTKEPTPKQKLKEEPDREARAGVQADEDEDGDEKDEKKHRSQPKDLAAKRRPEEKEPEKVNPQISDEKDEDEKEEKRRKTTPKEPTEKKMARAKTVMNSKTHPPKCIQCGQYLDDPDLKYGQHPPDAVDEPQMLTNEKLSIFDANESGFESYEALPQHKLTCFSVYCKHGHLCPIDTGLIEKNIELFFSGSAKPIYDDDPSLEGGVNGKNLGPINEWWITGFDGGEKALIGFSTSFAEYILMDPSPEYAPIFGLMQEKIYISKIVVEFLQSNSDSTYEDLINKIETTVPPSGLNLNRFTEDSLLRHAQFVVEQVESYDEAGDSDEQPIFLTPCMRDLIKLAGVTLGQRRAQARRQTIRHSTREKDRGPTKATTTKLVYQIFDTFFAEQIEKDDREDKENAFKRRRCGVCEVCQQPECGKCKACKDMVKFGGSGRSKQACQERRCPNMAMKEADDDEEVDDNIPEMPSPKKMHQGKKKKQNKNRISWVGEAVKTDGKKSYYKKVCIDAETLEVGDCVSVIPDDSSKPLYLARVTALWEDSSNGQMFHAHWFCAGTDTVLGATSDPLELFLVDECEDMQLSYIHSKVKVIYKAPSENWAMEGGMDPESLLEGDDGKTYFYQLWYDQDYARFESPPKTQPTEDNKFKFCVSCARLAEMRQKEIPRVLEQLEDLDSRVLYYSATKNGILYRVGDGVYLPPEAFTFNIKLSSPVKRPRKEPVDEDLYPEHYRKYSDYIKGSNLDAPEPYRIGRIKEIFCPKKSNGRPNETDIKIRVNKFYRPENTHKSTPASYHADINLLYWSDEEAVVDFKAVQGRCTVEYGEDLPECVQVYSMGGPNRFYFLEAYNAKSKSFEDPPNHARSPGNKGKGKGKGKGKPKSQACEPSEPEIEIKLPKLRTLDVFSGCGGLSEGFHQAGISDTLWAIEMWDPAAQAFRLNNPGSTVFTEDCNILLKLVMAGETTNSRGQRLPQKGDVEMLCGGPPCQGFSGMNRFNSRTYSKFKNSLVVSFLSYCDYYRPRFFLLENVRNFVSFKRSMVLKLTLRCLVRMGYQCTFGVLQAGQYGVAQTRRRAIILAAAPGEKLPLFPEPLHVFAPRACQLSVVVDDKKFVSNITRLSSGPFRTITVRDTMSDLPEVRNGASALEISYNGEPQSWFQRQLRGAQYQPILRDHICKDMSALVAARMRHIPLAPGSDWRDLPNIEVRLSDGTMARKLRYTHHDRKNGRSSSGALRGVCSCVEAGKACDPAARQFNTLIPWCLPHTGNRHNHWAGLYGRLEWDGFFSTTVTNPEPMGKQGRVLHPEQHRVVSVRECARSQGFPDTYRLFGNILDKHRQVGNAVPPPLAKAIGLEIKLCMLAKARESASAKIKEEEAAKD

EC50 (NCI-H1975) [µM]	EC50 (SW-480) [µM]	EC50 (BT474) [µM]	IC50 (Human DNMT1) [µM]	EC50 (NCI-H358) [µM]	EC50 (Daoy) [µM]	EC50 (Panc-1) [µM]	EC50 (OVCAR-3) [µM]	EC50 (DU-145) [µM]	EC50 (Colo205) [µM]	EC50 (HepG2) [µM]	EC50 (T47D) [µM]	EC50 (MDA-MB-468) [µM]	EC50 (U-373MG) [µM]	EC50 (MDA-MB-231) [µM]	EC50 (RCC-7860) [µM]	EC50 (LS174T) [µM]	SMILES
9.2	94	50	27.9	7.3	4.2	15	7.2	16	16	19	11	6.1	8.1	13	12	–	COc1cc(OC)c2c(-c3ccc(O)cc3)cn(CC(=O)c3ccc(O)cc3)c2c1 [Example 6, 1-(4-hydroxyphenyl)-2-[3-(4-hydroxyphenyl)-4,6-dimethoxy-1H-indol-1-yl]ethanone]
–	–	–	22.5	23	50	–	47	65	31	44	31	74	–	–	–	88	O=C(Cn1cc(-c2ccc(O)cc2)c2c(F)cc(F)cc21)c1ccc(O)cc1 [Example 16, 2-[4,6-difluoro-3-(4-hydroxyphenyl)-1H-indol-1-yl]-1-(4-hydroxyphenyl) ethanone]
